Article PMC8017969, “Redox regulation of NADP-malate dehydrogenase is vital for land plants under fluctuating light environment” (Proceedings of the National Academy of Sciences of the …, 2021)

Legend:
[1] = target: T1, MDHΔC (Arabidopsis thaliana, UniProt Q8H1E2); assay: NADPH oxidation monitored at […] nm, Michaelis-Menten fit; type: biochemical; details: reduced enzyme (pretreated with Trx-f1 and DTT); 0-200 μM oxaloacetate, 100 μM NADPH, 0.01 μM MDH, pH 7.5, 50 mM NaCl, 25 °C
T1 construct: gene At5g58330; mature enzyme from Ser54 plus start Met, C-terminal extension from Cys430 to C terminus deleted, pET-23c, expressed in E. coli
T1 sequence (Q8H1E2 54-429): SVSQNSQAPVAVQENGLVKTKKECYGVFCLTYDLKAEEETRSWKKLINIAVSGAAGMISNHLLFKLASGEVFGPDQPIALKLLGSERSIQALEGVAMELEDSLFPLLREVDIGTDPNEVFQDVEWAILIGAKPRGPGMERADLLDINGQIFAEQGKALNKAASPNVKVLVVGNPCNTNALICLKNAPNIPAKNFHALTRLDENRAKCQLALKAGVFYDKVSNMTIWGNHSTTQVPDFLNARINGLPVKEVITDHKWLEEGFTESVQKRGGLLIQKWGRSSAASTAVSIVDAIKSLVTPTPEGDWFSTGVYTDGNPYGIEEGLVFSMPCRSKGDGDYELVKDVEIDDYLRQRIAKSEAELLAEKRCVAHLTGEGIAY

[2] = target: T2, MDHWT (chloroplast NADP-malate dehydrogenase) (Arabidopsis thaliana, UniProt Q8H1E2); assay: as above; type: biochemical; details: reduced enzyme (pretreated with Trx-f1 and DTT); 0-200 μM oxaloacetate, 100 μM NADPH, 0.01 μM MDH, pH 7.5, 50 mM NaCl, 25 °C
T2 construct: gene At5g58330; mature enzyme from Ser54 plus start Met (transit peptide removed), pET-23c, expressed in E. coli, purified with added size exclusion step
T2 sequence (Q8H1E2 54-443): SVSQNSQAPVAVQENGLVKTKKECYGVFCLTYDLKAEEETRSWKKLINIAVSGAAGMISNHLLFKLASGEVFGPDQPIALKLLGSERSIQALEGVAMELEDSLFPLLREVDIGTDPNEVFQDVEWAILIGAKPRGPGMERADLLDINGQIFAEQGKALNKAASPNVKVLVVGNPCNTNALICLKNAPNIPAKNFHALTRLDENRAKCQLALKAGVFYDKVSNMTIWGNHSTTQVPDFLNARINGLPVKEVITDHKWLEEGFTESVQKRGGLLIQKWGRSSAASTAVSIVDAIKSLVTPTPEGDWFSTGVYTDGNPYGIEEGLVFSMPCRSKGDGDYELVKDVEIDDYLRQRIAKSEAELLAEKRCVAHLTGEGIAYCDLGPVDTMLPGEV

SMILES: O=C(O)CC(=O)C(=O)O [oxaloacetate]
- NADPH oxidation monitored at 340 nm, Michaelis-Menten fit [1]: Activities of recombinant MDHWT and MDHΔC
- NADPH oxidation monitored at 340 nm, Michaelis-Menten fit [2]: Activities of recombinant MDHWT and MDHΔC
